Assay results taken from patent US20180037568A1, “MODULATORS OF METHYL MODIFYING ENZYMES, COMPOSITIONS AND USES THEREOF” (Constellation Pharmaceuticals, Inc., priority 2015, published 2018).
Where two headings read alike, the source gives them in different places.

Experiments:
PRC2 containing wt EZH2 = target: T1, PRC2 containing wt EZH2 (Homo sapiens, UniProt Q15910); test: EZH2 pep BSA Brij 4.0 LowE (IC50): 3H-SAM incorporation into biotinylated H3 peptide; assay type: biochemical
T1 construct: made in house
Protocol: EZH2 Pep BSA Brij 4.0 LowE (IC50):
Compound potencies were assessed through incorporation of ^3H-SAM into a biotinylated H3 peptide. Specifically, PRC2 containing wt EZH2 (20 pM), (pentameric complexes prepared in-house) was pre-incubated with ^3H-SAM (0.9 μM), 2 μM H3K27me3 activating peptide (H2N-RKQLATKAAR(Kme3)SAPATGGVKKP-amide) and compounds (as 10 point duplicate dose response titrations in DMSO, final assay 0.8% DMSO (v/v)) for 120 min in 50 mM Tris (pH 8.5), 1 mM DTT, 0.07 mM Brij-35, 0.1% BSA, and 0.8% DMSO in a total volume of 12.5 μl. Reaction was initiated with biotinylated H3 substrate peptide (H2N-RKQLATKAAR(Kme1)SAPATGGVKKP-NTPEGBiot) as a 2 μM stock in 12.5 μl of buffer and allowed to react at room temperature for 5 h. Quenching was accomplished by addition of 20 μl of STOP solution (50 mM Tris (pH 8.5), 200 mM EDTA, 2 mM SAH). 35 μl of the quenched solution was transferred to Streptavidin Flashplates, incubated overnight, washed, and read in a TopCount Reader (Perkin Elmer). IC50s were calculated relative to fully active and no enzyme control wells using non-linear least square four parameter fits.

H3K27me3 mark = test: H3K27me3 Alpha Hela Assay (AlphaLISA); assay type: cell-based; settings: Hela cells, read-out: EZH2 Cell H3K27me3 Alpha HeLa (EC50 K27me3)
Protocol: EC50 Measurements for Inhibitors in HeLa Cell Assays
H3K27me3 Alpha Hela Assay (AlphaLISA). Ten different doses of each test compound (in a series of 3-fold dilutions) were plated in duplicate 384-well tissue culture treated plates (Catalog #781080; Greiner Bio One; Monroe, N.C.). Hela cells grown in culture were trypsinized and counted using a Countess® cell counter (Catalog # C10281; Life Technologies, Grand Island, N.Y.). Cell were diluted to 67,000 cells per mL in 10% DMEM (Catalog #10569-010 Life Technologies, Grand Island, N.Y.) and 15 μL (1,000 cells) were plated into each well using the Biotek MicroFlo™ Select Dispenser (BioTek Instruments, Inc. Vermont, USA),) of the 384-well plate. Plates were incubated at 37° C./5% CO2 for 72 hrs. One of the duplicate plates was processed for HeLa assay and the other for viability.
To the plate processed for AlphaLISA was added 5 μL per well Cell-Histone Lysis buffer (1×) (Catalog # AL009F1 Perkin Elmer; Waltham, Mass.) and the plate was incubated at RT for 30 minutes on a plate shaker with low speed (Model#4625-Q Thermo Scientific; Waltham, Mass.). Then, 10 μL per well Histone Extraction buffer (catalog # AL009F2; Perkin Elmer; Waltham, Mass.) was added and the plate further incubated at RT for 20 min on plate shaker with low speed. To each well was then added 10 μL per well of a 5× mix of anti-K27me3 acceptor beads plus Biotinylated anti-Histone H3 (C-ter) Antibody (diluted to 3 nM final) (Catalog #AL118 Perkin Elmer; Waltham, Mass.). Dilution of the acceptor beads and then anti-Histone H3 was with 1× Histone Detection buffer (Catalog # AL009F3 Perkin Elmer; Waltham, Mass.) which was produced diluted from the 10× stock provided. The plate was sealed with an aluminum plate sealer and incubated at 23° C. for 60 min. We then added 10 μL 5× solution of Streptavidin Donor beads (Catalog #6760002 Perkin Elmer; Waltham, Mass.) (20 μg/mL final in 1× Histone Detection Buffer), sealed the plate with Aluminum plate sealer and incubated at 23° C. for 30 min. The plates were then read using an EnVision-Alpha Reader (model #2104 Perkin Elmer; Waltham, Mass.).
Data from both assays was analyzed using Assay Assistant (Constellation Pharmaceuticals In-house product) and Activity Base (IDBS Ltd, Surrey, UK) template. Data files were imported to Assay Assistant and assay conditions were specified. A unique Analysis ID was created and the data files exported to Activity Base. An analysis template was created on Activity Base to measure dose-dependent inhibition of H3K27me3 mark and cell viability respectively. Readout of DMSO wells were used to normalize the data. Resulting curves were fitted using Activity base software Model 205 (IDBS Ltd, Surrey, UK). The data was checked for quality, validated and integrated in excel format using SARview (IDBS Ltd, Surrey, UK).

[1] = EZH2 pep BSA Brij 4.0 LowE (IC50), 20 pM PRC2 wt EZH2, 0.9 μM 3H-SAM, biotinylated H3 peptide substrate, 2 μM H3K27me3 activating peptide
[2] = 20 pM PRC2 wt EZH2, 0.9 μM 3H-SAM, biotinylated H3 peptide substrate, 2 μM H3K27me3 activating peptide; read-out: EZH2 pep BSA Brij 4.0 LowE (IC50)

T1 sequence (Q15910 whole entry): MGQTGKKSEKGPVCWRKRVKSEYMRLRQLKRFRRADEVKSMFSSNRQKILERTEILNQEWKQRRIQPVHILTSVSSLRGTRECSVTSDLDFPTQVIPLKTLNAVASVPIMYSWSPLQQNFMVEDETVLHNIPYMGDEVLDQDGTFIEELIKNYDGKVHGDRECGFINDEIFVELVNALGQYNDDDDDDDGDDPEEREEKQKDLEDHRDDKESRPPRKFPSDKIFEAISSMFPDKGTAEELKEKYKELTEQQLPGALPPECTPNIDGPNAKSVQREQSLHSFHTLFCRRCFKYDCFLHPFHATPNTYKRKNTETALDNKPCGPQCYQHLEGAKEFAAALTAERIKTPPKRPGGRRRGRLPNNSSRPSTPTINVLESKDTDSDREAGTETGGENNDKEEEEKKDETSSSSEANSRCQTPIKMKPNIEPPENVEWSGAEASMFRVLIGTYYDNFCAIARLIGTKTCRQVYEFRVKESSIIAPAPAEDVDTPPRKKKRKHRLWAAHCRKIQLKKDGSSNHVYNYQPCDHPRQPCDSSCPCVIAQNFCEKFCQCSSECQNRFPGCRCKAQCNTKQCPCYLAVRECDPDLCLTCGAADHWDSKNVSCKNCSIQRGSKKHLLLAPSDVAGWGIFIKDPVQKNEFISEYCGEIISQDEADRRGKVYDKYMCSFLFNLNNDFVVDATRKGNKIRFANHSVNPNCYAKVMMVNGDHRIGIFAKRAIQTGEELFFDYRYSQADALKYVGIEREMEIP
T1 sequence (O75530 whole entry partner): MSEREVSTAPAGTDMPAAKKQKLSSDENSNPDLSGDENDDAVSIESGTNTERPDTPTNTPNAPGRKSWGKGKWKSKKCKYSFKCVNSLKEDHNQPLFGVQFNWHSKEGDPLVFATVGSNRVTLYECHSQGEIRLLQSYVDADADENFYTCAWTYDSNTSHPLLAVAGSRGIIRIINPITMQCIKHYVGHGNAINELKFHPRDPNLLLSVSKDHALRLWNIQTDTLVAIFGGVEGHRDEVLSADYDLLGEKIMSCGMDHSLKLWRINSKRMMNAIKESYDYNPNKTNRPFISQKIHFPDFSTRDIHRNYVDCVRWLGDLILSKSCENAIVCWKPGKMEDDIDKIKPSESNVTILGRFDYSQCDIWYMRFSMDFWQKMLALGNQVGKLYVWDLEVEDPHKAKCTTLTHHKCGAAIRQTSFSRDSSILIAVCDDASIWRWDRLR
T1 sequence (Q15022 whole entry partner): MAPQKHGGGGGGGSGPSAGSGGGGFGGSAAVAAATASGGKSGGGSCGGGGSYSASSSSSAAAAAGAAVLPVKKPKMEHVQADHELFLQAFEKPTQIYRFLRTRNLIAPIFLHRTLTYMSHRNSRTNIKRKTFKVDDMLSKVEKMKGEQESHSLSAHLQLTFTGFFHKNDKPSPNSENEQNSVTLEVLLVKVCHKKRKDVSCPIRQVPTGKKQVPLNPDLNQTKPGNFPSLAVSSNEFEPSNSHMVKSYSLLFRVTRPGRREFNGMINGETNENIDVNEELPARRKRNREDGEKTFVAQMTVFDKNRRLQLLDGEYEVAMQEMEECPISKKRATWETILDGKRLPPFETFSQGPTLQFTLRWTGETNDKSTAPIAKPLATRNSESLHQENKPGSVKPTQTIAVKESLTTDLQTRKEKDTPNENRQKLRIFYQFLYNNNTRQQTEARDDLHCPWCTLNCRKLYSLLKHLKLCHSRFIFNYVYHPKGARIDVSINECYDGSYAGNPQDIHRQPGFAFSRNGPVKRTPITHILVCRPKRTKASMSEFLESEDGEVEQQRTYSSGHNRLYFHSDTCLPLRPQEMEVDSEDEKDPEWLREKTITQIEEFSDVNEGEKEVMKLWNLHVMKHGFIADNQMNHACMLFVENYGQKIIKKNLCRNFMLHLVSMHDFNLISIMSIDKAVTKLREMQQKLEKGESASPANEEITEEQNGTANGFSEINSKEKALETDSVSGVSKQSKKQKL
T1 sequence (Q09028 whole entry partner): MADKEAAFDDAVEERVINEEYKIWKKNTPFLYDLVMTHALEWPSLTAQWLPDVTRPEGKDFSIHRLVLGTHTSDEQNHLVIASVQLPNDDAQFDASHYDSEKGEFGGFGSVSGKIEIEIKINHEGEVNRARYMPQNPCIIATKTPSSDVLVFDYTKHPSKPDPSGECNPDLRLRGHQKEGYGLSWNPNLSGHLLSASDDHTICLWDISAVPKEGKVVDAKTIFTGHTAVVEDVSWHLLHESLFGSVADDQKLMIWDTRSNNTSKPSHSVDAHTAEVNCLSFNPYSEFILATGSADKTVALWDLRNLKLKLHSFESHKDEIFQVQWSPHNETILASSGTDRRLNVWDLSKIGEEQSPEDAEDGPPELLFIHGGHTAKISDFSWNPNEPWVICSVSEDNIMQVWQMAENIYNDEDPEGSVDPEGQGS
T1 sequence (Q6ZN18 whole entry partner): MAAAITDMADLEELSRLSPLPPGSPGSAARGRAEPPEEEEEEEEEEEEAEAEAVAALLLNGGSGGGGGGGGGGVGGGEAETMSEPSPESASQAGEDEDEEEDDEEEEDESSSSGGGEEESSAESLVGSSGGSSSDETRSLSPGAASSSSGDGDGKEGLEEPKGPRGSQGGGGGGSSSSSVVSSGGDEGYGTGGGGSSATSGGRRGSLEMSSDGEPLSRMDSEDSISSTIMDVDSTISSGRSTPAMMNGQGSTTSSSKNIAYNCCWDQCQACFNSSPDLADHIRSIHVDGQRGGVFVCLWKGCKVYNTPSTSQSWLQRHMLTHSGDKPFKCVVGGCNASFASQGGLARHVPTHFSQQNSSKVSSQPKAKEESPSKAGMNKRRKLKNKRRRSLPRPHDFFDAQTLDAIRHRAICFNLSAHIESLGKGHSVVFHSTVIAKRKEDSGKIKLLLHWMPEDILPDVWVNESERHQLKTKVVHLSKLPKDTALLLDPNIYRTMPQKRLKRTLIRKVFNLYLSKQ

SMILES | IC50 (PRC2 containing wt EZH2; [1]) [nM] | EC50 (H3K27me3 mark; Homo sapiens, HeLa, 72 h) [nM] | EC50 (H3K27me3 mark; 72 hrs) [nM] | IC50 (PRC2 containing wt EZH2; [2]) [nM] | IC50 (PRC2 containing wt EZH2; read-out: EZH2 pep BSA Brij 4.0 LowE (IC50); 20 pM PRC2 wt EZH2, 0.9 μM 3H-SAM, biotinylated H3 peptide substrate, 2 μM H3K27me3 activating peptide) [nM]
COc1cc(C)[nH]c(=O)c1CNC(=O)c1c(C)n(C(C)C2CCN(C)CC2C(F)(F)F)c2ccccc12 (single isomer, unassigned) [Compound 27, N-((4-methoxy-6-methyl-2-oxo-1,2-dihydropyridin-3-yl)methyl)-2-methyl-1-(1-(1-methyl-3-(trifluoromethyl)piperidin-4-yl)ethyl)-1H-indole-3-carboxamide] | 100 to 1000 | > 2000 | – | – | –
COc1cc(C)[nH]c(=O)c1CNC(=O)c1c(C)n(C(C)C2CCN(C)CC2C(F)(F)F)c2ccccc12 (single isomer, unassigned) [Compound 28, N-((4-methoxy-6-methyl-2-oxo-1,2-dihydropyridin-3-yl)methyl)-2-methyl-1-(1-(1-methyl-3-(trifluoromethyl)piperidin-4-yl)ethyl)-1H-indole-3-carboxamide] | < 100 | – | > 2000 | – | –
COc1cc(C)[nH]c(=O)c1CNC(=O)c1c(C)n(C(C)C2CCN(C)C(c3ccc(F)cc3)C2)c2ccccc12 (single isomer, unassigned) [Compound 34, 1-(1-(2-(4-fluorophenyl)-1-methylpiperidin-4-yl)ethyl)-N-((4-methoxy-6-methyl-2-oxo-1,2-dihydropyridin-3-yl)methyl)-2-methyl-1H-indole-3-carboxamide] | – | – | > 2000 | 100 to 1000 | –
COc1cc(C)[nH]c(=O)c1CNC(=O)c1c(C)n(C(C)C2CCN(C)C(c3ccc(F)cc3)C2)c2ccccc12 (single isomer, unassigned) [Compound 35, 1-(1-(2-(4-fluorophenyl)-1-methylpiperidin-4-yl)ethyl)-N-((4-methoxy-6-methyl-2-oxo-1,2-dihydropyridin-3-yl)methyl)-2-methyl-1H-indole-3-carboxamide] | – | – | < 400 | < 100 | –
CCc1cc(C)[nH]c(=O)c1CNC(=O)c1c(C)n(C(C)C2CCNC(C(F)(F)F)C2)c2ccccc12 (centres unmarked) [Compound 5, N-((4-ethyl-6-methyl-2-oxo-1,2-dihydropyridin-3-yl)methyl)-2-methyl-1-(1-(2-(trifluoromethyl)piperidin-4-yl)ethyl)-1H-indole-3-carboxamide] | < 100 | < 400 | – | – | –
CCCc1cc(C)[nH]c(=O)c1CNC(=O)c1c(C)n(C(C)C2CCNC(C(F)(F)F)C2)c2ccccc12 (centres unmarked) [Compound 6, 2-methyl-N-((6-methyl-2-oxo-4-propyl-1,2-dihydropyridin-3-yl)methyl)-1-(1-(2-(trifluoromethyl)piperidin-4-yl)ethyl)-1H-indole-3-carboxamide] | < 100 | < 400 | – | – | –
Cc1cc(OC(F)F)c(CNC(=O)c2c(C)n(C(C)C3CCNC(C(F)(F)F)C3)c3ccccc23)c(=O)[nH]1 (centres unmarked) [Compound 7, N-((4-(difluoromethoxy)-6-methyl-2-oxo-1,2-dihydropyridin-3-yl)methyl)-2-methyl-1-(1-(2-(trifluoromethyl)piperidin-4-yl)ethyl)-1H-indole-3-carboxamide] | < 100 | < 400 | – | – | –
COc1cc(C)[nH]c(=O)c1CNC(=O)c1c(C)n(C(C)C2CCN(C)C(CF)C2)c2ccccc12 (centres unmarked) [Compound 29, 1-(1-(2-(fluoromethyl)-1-methylpiperidin-4-yl)ethyl)-N-((4-methoxy-6-methyl-2-oxo-1,2-dihydropyridin-3-yl)methyl)-2-methyl-1H-indole-3-carboxamide] | < 100 | > 2000 | – | – | –
COc1cc(C)[nH]c(=O)c1CNC(=O)c1c(C)n(C(C)C2CCN(C)C(CO)C2)c2ccccc12 (centres unmarked) [Compound 30, 1-(1-(2-(hydroxymethyl)-1-methylpiperidin-4-yl)ethyl)-N-((4-methoxy-6-methyl-2-oxo-1,2-dihydropyridin-3-yl)methyl)-2-methyl-1H-indole-3-carboxamide] | < 100 | > 2000 | – | – | –
COc1cc(C)[nH]c(=O)c1CNC(=O)c1c(C)n(C(C)C2CCN(CC(F)F)C(C)C2)c2ccccc12 (centres unmarked) [Compound 44] | < 100 | – | > 2000 | – | –
COc1cc(C)[nH]c(=O)c1CNC(=O)c1c(C)n(C(C)C2CCN(CC(F)(F)F)C(C)C2)c2ccccc12 (centres unmarked) [Compound 45] | < 100 | – | < 400 | – | –
COc1cc(C)[nH]c(=O)c1CNC(=O)c1c(C)n(C(C)C2CCN(CC(F)F)C(C)C2)c2ccccc12 (centres unmarked) [Compound 46] | – | – | < 400 | – | < 100
COc1cc(C)[nH]c(=O)c1CNC(=O)c1c(C)n(C(C)C2CCN(CC(F)(F)F)C(C)C2)c2ccccc12 (centres unmarked) [Compound 47] | 100 to 1000 | – | > 2000 | – | –
